Measured values: PubChem BioAssay AID248 (DTP/NCI, 2004)
Values joined by “and” are separate entries in the source; they are usually repeats but may differ in a detail not shown here. Equal entries are not always repeated. Inconclusive results and toxic doses are left out. No stated cut-off is given here; in the data, active means T/C of 150% or more; inactive means T/C below 125%.

System: L1210 leukemia ip in BDF1 mice, survival T/C
Experiment: NCI In Vivo Anticancer Drug Screen. Data for tumor model L1210 Leukemia (intraperitoneal) in B6D2F1 (BDF1) mice
Conditions: endpoint: mean survival time, higher = longer survival
In short: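 Mice bearing the transplanted tumor received compound or vehicle. Survival of the treated group was divided by that of the vehicle-treated control group to give the ratio.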

[1] = dose: 100.0 mg/kg/injection, schedule: Q04DX003 (ip), vehicle: Klucel (hydroxypropylcellulose) (HPC)
[2] = dose: 200.0 mg/kg/injection, schedule: Q04DX003 (ip), vehicle: Klucel (hydroxypropylcellulose) (HPC)
[3] = dose: 400.0 mg/kg/injection, schedule: Q04DX003 (ip), vehicle: Klucel (hydroxypropylcellulose) (HPC)
[4] = dose: 100.0 mg/kg/injection, schedule: Q01DX009 (ip), vehicle: Klucel (hydroxypropylcellulose) (HPC)
[5] = dose: 200.0 mg/kg/injection, schedule: Q01DX009 (ip), vehicle: Klucel (hydroxypropylcellulose) (HPC)
[6] = dose: 400.0 mg/kg/injection, schedule: Q01DX009 (ip), vehicle: Klucel (hydroxypropylcellulose) (HPC)
[7] = dose: 100.0 mg/kg/injection, schedule: Q01DX001 (ip), vehicle: saline
[8] = dose: 200.0 mg/kg/injection, schedule: Q01DX001 (ip), vehicle: saline
[9] = dose: 400.0 mg/kg/injection, schedule: Q01DX001 (ip), vehicle: saline
[10] = dose: 12.5 mg/kg/injection, schedule: Q01DX009 (ip), vehicle: saline
[11] = dose: 25.0 mg/kg/injection, schedule: Q01DX009 (ip), vehicle: saline
[12] = dose: 50.0 mg/kg/injection, schedule: Q01DX009 (ip), vehicle: saline
[13] = dose: 100.0 mg/kg/injection, schedule: Q04DX003 (ip), vehicle: saline
[14] = dose: 200.0 mg/kg/injection, schedule: Q04DX003 (ip), vehicle: saline
[15] = dose: 150.0 mg/kg/injection, schedule: Q01DX001 (ip), vehicle: carboxymethylcellulose (CMC)
[16] = dose: 75.0 mg/kg/injection, schedule: Q01DX001 (ip), vehicle: saline
[17] = dose: 150.0 mg/kg/injection, schedule: Q01DX001 (ip), vehicle: saline
[18] = dose: 100.0 mg/kg/injection, schedule: Q04DX002 (ip), vehicle: Klucel (hydroxypropylcellulose) (HPC)
[19] = dose: 200.0 mg/kg/injection, schedule: Q04DX002 (ip), vehicle: Klucel (hydroxypropylcellulose) (HPC)
[20] = dose: 400.0 mg/kg/injection, schedule: Q04DX002 (ip), vehicle: Klucel (hydroxypropylcellulose) (HPC)

Measured: T/C

O=C(COc1ccc(Cl)cc1)OCCCl
inactive: dose: 87.5 mg/kg/injection, schedule: Q01DX009 (ip), vehicle: other 104 % of control | [1] 95 % of control | dose: 175.0 mg/kg/injection, schedule: Q01DX009 (ip), vehicle: other 98 % of control | [2] 97 % of control | dose: 350.0 mg/kg/injection, schedule: Q01DX009 (ip), vehicle: other 104 % of control | [3] 91 % of control

COc1ccc(/C=C2\N=C(c3ccc([N+](=O)[O-])cc3)OC2=O)cc1
inactive: [4] 93 % of control | [5] 91 % of control | [6] 95 % of control

CCOC(=O)C1=C(C(=O)OCC)C2(c3ccccc3)NC1(c1ccccc1)c1ccccc12
inactive: [7] 101 % of control | [8] 97 % of control | [9] 97 % of control

Cn1c(=O)c2ccc[n+]([O-])c2n(C)c1=O
inactive: [4] 101 % of control | [1] 103 % of control | [5] 108 % of control | [2] 96 % of control | [6] 105 % of control | [3] 107 % of control

Nc1nc(N)nc(-c2ccccc2N=NN2CCCC2)n1
inactive: [1] 105 % of control | [2] 98 % of control | [3] 95 % of control

C(CSC1=NCCN1)CSC1=NCCN1
inactive: dose: 6.25 mg/kg/injection, schedule: Q01DX009 (ip), vehicle: saline 105 % of control | [10] 111 % of control | [11] 107 % of control | [12] 117 % of control | dose: 100.0 mg/kg/injection, schedule: Q01DX009 (ip), vehicle: saline 115 % of control | [13] 100 % of control | dose: 200.0 mg/kg/injection, schedule: Q01DX009 (ip), vehicle: saline 115 % of control | [14] 108 % of control

CC(=O)Nc1ccc(-c2cnc3ccccc3c2)cc1
inactive: dose: 5.0 mg/kg/injection, schedule: Q01DX001 (ip), vehicle: saline 106 % of control | dose: 10.0 mg/kg/injection, schedule: Q01DX001 (ip), vehicle: saline 106 % of control | dose: 20.0 mg/kg/injection, schedule: Q01DX001 (ip), vehicle: saline 97 % of control | dose: 40.0 mg/kg/injection, schedule: Q01DX001 (ip), vehicle: saline 90 % of control | dose: 80.0 mg/kg/injection, schedule: Q01DX001 (ip), vehicle: saline 95 % of control

O=C(NC/C=C/Br)Nc1c2ccccc2nc2ccccc12
inactive: [10] 102 % of control | [11] 102 % of control | [12] 109 % of control

CN(Cc1ccc2nc(N)nc(N)c2c1)c1ccc(C(=O)NC(CCC(=O)O)C(=O)O)cc1 (centres undefined)
inactive: dose: 0.12 mg/kg/injection, schedule: Q01DX009 (ip), vehicle: other 123 % of control | dose: 2.1 mg/kg/injection, schedule: Q01DX009 (ip), vehicle: other 101 % of control | dose: 2.5 mg/kg/injection, schedule: Q01DX009 (ip), vehicle: saline 113 % of control | dose: 5.0 mg/kg/injection, schedule: Q01DX009 (ip), vehicle: saline 97 % of control | dose: 6.6 mg/kg/injection, schedule: Q01DX001 (ip), vehicle: other 119 % of control | dose: 6.6 mg/kg/injection, schedule: Q01DX001 (ip), vehicle: saline 119 % of control
active: dose: 0.5 mg/kg/injection, schedule: Q01DX009 (ip), vehicle: other 192 % of control | dose: 1.0 mg/kg/injection, schedule: Q01DX009 (ip), vehicle: other 190 % of control | dose: 1.25 mg/kg/injection, schedule: Q01DX009 (ip), vehicle: saline 154 % of control | dose: 5.0 mg/kg/injection, schedule: Q01DX001 (ip), vehicle: other 151 % of control | dose: 10.0 mg/kg/injection, schedule: Q01DX001 (ip), vehicle: other 159 % of control | dose: 15.0 mg/kg/injection, schedule: Q01DX001 (ip), vehicle: other 154 % of control

CS(=O)(=O)/C=C(\I)c1ccccc1
inactive: [7] 97 % of control | [8] 97 % of control | [9] 93 % of control

O=NN(CCCl)C(=O)Nc1ccc(Br)cn1
active: dose: 10.0 mg/kg/injection, schedule: Q01DX009 (ip), vehicle: carboxymethylcellulose (CMC) 186 % of control | dose: 15.0 mg/kg/injection, schedule: Q01DX009 (ip), vehicle: carboxymethylcellulose (CMC) 154 % of control | dose: 22.5 mg/kg/injection, schedule: Q01DX009 (ip), vehicle: carboxymethylcellulose (CMC) 158 % of control | dose: 29.0 mg/kg/injection, schedule: Q01DX009 (ip), vehicle: carboxymethylcellulose (CMC) 157 % of control | dose: 66.0 mg/kg/injection, schedule: Q01DX001 (ip), vehicle: carboxymethylcellulose (CMC) 151 % of control | dose: 100.0 mg/kg/injection, schedule: Q01DX001 (ip), vehicle: carboxymethylcellulose (CMC) 150 % of control and 173 % of control
inactive: dose: 3.0 mg/kg/injection, schedule: Q01DX009 (ip), vehicle: carboxymethylcellulose (CMC) 97 % of control | dose: 6.0 mg/kg/injection, schedule: Q01DX009 (ip), vehicle: carboxymethylcellulose (CMC) 103 % of control | dose: 12.0 mg/kg/injection, schedule: Q01DX009 (ip), vehicle: carboxymethylcellulose (CMC) 119 % of control | [15] 102 % of control and 109 % of control

O=C1c2ccccc2C(=O)c2c(Nc3ccccc3)ccc(O)c21
inactive: [1] 97 % of control | [2] 98 % of control

O=C(O)Cc1ccccc1
inactive: dose: 18.75 mg/kg/injection, schedule: Q01DX009 (ip), vehicle: acetone 95 % of control | dose: 37.5 mg/kg/injection, schedule: Q01DX009 (ip), vehicle: acetone 90 % of control | dose: 37.5 mg/kg/injection, schedule: Q04DX003 (ip), vehicle: acetone 96 % of control | dose: 75.0 mg/kg/injection, schedule: Q01DX001 (ip), vehicle: carboxymethylcellulose (CMC) 96 % of control | [16] 95 % of control | dose: 75.0 mg/kg/injection, schedule: Q01DX009 (ip), vehicle: acetone 90 % of control | dose: 75.0 mg/kg/injection, schedule: Q04DX003 (ip), vehicle: acetone 91 % of control | [15] 94 % of control | [17] 93 % of control | dose: 150.0 mg/kg/injection, schedule: Q04DX003 (ip), vehicle: acetone 98 % of control

CCOC(=O)/C(C#N)=C(\C)CCc1ccccc1
inactive: [16] 104 % of control | [17] 101 % of control | dose: 300.0 mg/kg/injection, schedule: Q01DX001 (ip), vehicle: saline 101 % of control

O=[N+]([O-])c1ccc(NC(c2ccccc2)c2ccc3cccnc3c2O)cc1 (centres undefined)
inactive: [7] 89 % of control | [8] 95 % of control | [9] 91 % of control

C1C2CC3CC1CC(C2)C31CO1 (centres undefined)
inactive: [18] 90 % of control | [19] 90 % of control | [20] 105 % of control

CC1=NCCN=C(C)C1
inactive: [13] 96 % of control | [14] 98 % of control | dose: 400.0 mg/kg/injection, schedule: Q04DX003 (ip), vehicle: saline 112 % of control

Cc1c(S(=O)(=O)F)ccc(O)c1[N+](=O)[O-]
inactive: [4] 104 % of control | [5] 104 % of control | [6] 110 % of control

CCOC(=O)CNC(c1ccccc1)(c1ccccc1)c1ccccc1
inactive: [4] 106 % of control | [1] 91 % of control | [5] 90 % of control | [2] 91 % of control | [6] 90 % of control | [3] 98 % of control

S=C(Sc1nc2ccccc2s1)Sc1nc2ccccc2s1
inactive: [18] 105 % of control | [19] 94 % of control | [20] 101 % of control

CC1(CCCOc2ccccc2C(=O)NCBr)N=C(N)N=C(N)N1c1ccccc1 (centres undefined)
inactive: dose: 100.0 mg/kg/injection, schedule: Q01DX001 (ip), vehicle: Klucel (hydroxypropylcellulose) (HPC) 104 % of control

CCOC(=O)C1C=NC([N+](=O)[O-])=C1Br (centres undefined)
inactive: dose: 25.0 mg/kg/injection, schedule: Q04DX002 (ip), vehicle: Klucel (hydroxypropylcellulose) (HPC) 102 % of control | dose: 50.0 mg/kg/injection, schedule: Q04DX002 (ip), vehicle: Klucel (hydroxypropylcellulose) (HPC) 109 % of control | [18] 103 % of control and 105 % of control | [20] 93 % of control

CC(C)(C1c2ccccc2C(=O)c2ccccc21)[N+](=O)[O-]
inactive: [4] 101 % of control | [1] 98 % of control | [5] 94 % of control | [2] 101 % of control | [6] 99 % of control | [3] 101 % of control
